Assay results reported in patent US7932270B2 (Cytokinetics, Inc., priority 2006, dated 2011).

Target: T1, chicken gizzard smooth muscle myosin subfragment-1 chemically crosslinked to cardiac or skeletal actin (Gallus gallus, UniProt P10587)
T1 construct: chicken gizzard smooth muscle myosin subfragment-1; from tissue; host or cells: chicken gizzard
Experiment: Smooth muscle myosin ATPase dose response assay (pyruvate kinase/horseradish peroxidase/pyruvate oxidase-coupled, amplex red fluorescence)
Type: biochemical
Conditions: read-out: IC50 Arithmetic Mean
How it was run: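 Amplex red fluorescence (480 nm excitation, 615 nm emission) tracked ATP hydrolysis by smooth muscle S1 crosslinked to actin with carbodiimide/N-hydroxysuccinimide. Reactions contained 0.15 mM ATP and 100 mM KCl at pH 7.00, 22° C. IC50 came from a four-parameter logistic fit.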

T1 sequence (P02607 2-151): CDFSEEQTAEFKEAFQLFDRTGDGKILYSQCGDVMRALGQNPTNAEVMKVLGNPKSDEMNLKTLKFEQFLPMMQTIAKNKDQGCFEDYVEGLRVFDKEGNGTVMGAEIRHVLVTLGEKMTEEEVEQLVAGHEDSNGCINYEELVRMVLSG
T1 sequence (P10587 84-789): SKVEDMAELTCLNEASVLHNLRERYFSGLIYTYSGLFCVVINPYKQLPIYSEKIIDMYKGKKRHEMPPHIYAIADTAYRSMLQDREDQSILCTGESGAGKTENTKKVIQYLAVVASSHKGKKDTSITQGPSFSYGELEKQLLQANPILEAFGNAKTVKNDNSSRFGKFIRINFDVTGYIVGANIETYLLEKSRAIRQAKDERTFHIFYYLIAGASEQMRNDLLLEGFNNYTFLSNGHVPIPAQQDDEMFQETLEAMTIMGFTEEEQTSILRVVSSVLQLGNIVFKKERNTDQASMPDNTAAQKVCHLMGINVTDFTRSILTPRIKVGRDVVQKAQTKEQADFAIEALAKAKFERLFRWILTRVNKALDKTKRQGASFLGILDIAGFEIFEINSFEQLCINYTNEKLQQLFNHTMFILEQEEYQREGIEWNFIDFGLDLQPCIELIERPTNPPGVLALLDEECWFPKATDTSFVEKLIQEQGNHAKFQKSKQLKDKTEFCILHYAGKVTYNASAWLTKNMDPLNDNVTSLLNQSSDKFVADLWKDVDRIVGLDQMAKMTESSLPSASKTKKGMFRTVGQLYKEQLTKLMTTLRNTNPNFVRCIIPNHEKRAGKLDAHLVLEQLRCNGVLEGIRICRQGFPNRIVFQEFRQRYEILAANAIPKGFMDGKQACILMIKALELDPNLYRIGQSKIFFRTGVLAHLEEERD

Row | SMILES | IC50 [µM]
1 | CC(C)(C)OC(=O)NCCCN1CC(=O)N[C@H](CNC(=O)c2ccc(-c3ccccc3C#N)nc2NCCc2cccc(F)c2)C1 [N-[((2R)-4-{3-[(tert-butoxy)carbonylamino]propyl}-6-oxopiperazin-2-yl)methyl](6-(2-cyanophenyl)-2-{[2-(3-fluorophenyl)ethyl]amino}(3-pyridyl))carboxamide] | 9.54
2 | CNC(=O)[C@H](C)CNC(=O)c1cc(F)c(-c2cnn(C)c2)nc1NCCc1cccc(F)c1 [(2R)-3-[(5-fluoro-2-{[2-(3-fluorophenyl)ethyl]amino}-6-(1-methylpyrazol-4-yl)(3-pyridyl))carbonylamino]-2-methyl-N-methylpropanamide] | 0.13
3 | CC(C)(CNC(=O)c1ccc(-c2ccccc2C#N)nc1NCCc1cccc(F)c1)NS(C)(=O)=O [(6-(2-cyanophenyl)-2-{[2-(3-fluorophenyl)ethyl]amino}(3-pyridyl))-N-{2-methyl-2-[(methylsulfonyl)amino]propyl}carboxamide] | 1.47
4 | N#Cc1ccccc1-c1ccc(C(=O)NCCNS(=O)(=O)CCN)c(NCCc2cccc(F)c2)n1 [N-(2-{[(2-aminoethyl)sulfonyl]amino}ethyl)(6-(2-cyanophenyl)-2-{[2-(3-fluorophenyl)ethyl]amino}(3-pyridyl))carboxamide] | 1.55
5 | NCCNc1ncccc1CNC(=O)c1ccc(-c2cn[nH]c2)nc1NCCc1cccc(F)c1 [N-({2-[(2-aminoethyl)amino](3-pyridyl)}methyl)(2-{[2-(3-fluorophenyl)ethyl]amino}-6-pyrazol-4-yl(3-pyridyl))carboxamide] | 0.122
6 | O=C(NCc1cccnc1)c1ccc(-c2ccsc2)nc1NCCc1cccc(F)c1 [(2-{[2-(3-fluorophenyl)ethyl]amino}-6-(3-thienyl)(3-pyridyl))-N-(3-pyridylmethyl)carboxamide] | 0.048
7 | C[C@H](CNC(=O)c1cc(F)c(-c2cnn(C)c2)nc1NCCc1cccc(F)c1)NC(=O)C(C)(C)N | 0.285
8 | CC(=O)c1ccc(-c2ccc(C(=O)NCc3cccnc3)c(NCCc3cccc(F)c3)n2)s1 [(6-(5-acetyl(2-thienyl))-2-{[2-(3-fluorophenyl)ethyl]amino}(3-pyridyl))-N-(3-pyridylmethyl)carboxamide] | 0.178
9 | Cc1cc(C(=O)NC[C@H]2CCCN2C(=O)CCCNC(=O)OC(C)(C)C)c(NCCc2cccc(F)c2)nc1-c1cnn(C)c1 [N-[((2R)-1-{4-[(tert-butoxy)carbonylamino]butanoyl}pyrrolidin-2-yl)methyl](2-{[2-(3-fluorophenyl)ethyl]amino}-5-methyl-6-(1-methylpyrazol-4-yl)(3-pyridyl))carboxamide] | 2.26
10 | CC(C)(C)OC(=O)NCCC(=O)N1CCCC[C@H]1CNC(=O)c1ccc(-c2ccccc2C#N)nc1NCCc1cccc(F)c1 [N-[((2S)-1-{3-[(tert-butoxy)carbonylamino]propanoyl}(2-piperidyl))methyl](6-(2-cyanophenyl)-2-{[2-(3-fluorophenyl)ethyl]amino}(3-pyridyl))carboxamide] | 8.64
11 | CC(C)(C)OC(=O)NCCCN1C(=O)CC[C@@H]1CNC(=O)c1cc(F)c(-c2ccccc2C#N)nc1NCCc1cccc(F)c1 [N-[((2R)-1-{3-[(tert-butoxy)carbonylamino]propyl}-5-oxopyrrolidin-2-yl)methyl](6-(2-cyanophenyl)-5-fluoro-2-{[2-(3-fluorophenyl)ethyl]amino}(3-pyridyl))carboxamide] | 0.845
12 | O=C(NCc1cccnc1)c1ccc(-c2c(F)cccc2Cl)nc1NCCc1cccc(F)c1 [(6-(2-chloro-6-fluorophenyl)-2-{[2-(3-fluorophenyl)ethyl]amino}(3-pyridyl))-N-(3-pyridylmethyl)carboxamide] | 0.54
13 | CN(C)C(=O)CNC(=O)c1ccc(-c2ccccc2C#N)nc1NCCc1cccc(F)c1 [2-[(6-(2-cyanophenyl)-2-{[2-(3-fluorophenyl)ethyl]amino}(3-pyridyl))carbonylamino]-N,N-dimethylacetamide] | 0.532
14 | C[C@H](CNC(=O)c1cc(F)c(-c2cnn(C)c2)nc1NCCc1cccc(F)c1)NC(=O)[C@H](CO)NC(=O)OC(C)(C)C | 2.26
15 | O=C(NCc1cccnc1)c1cc2c(nc1NCCc1cccc(F)c1)-c1ccccc1C2=O [(2-{[2-(3-fluorophenyl)ethyl]amino}-5-oxoindeno[3,2-b]pyridin-3-yl)-N-(3-pyridylmethyl)carboxamide] | 0.088
16 | C[C@@H](CO)CNC(=O)c1cc(F)c(-c2cnn(C)c2)nc1NCCc1cccc(F)c1 [N-((2R)-3-hydroxy-2-methylpropyl)(5-fluoro-2-{[2-(3-fluorophenyl)ethyl]amino}-6-(1-methylpyrazol-4-yl)(3-pyridyl))carboxamide] | 0.05
17 | O=C(NCc1cccnc1)c1ccc(-c2cccnc2)nc1NCCc1ccccn1 [N-(3-pyridylmethyl){6-(3-pyridyl)-2-[(2-(2-pyridyl)ethyl)amino](3-pyridyl)}carboxamide] | 19.1

More lines, now with the values ahead:

Row | IC50 [µM] | SMILES
18 | 2.63 | CC(=O)N[C@@H](CNC(=O)c1ccc(-c2ccccc2C#N)nc1NCCc1cccc(F)c1)C(N)=O [N-{(1S)-1-carbamoyl-2-[(6-(2-cyanophenyl)-2-{[2-(3-fluorophenyl)ethyl]amino}(3-pyridyl))carbonylamino]ethyl}acetamide]
19 | 10.9 | COC(=O)CNC[C@H](N)CNC(=O)c1ccc(-c2cnn(C)c2)nc1NCCc1cccc(F)c1 [methyl 2-({(2S)-2-amino-3-[(2-{[2-(3-fluorophenyl)ethyl]amino}-6-(1-methylpyrazol-4-yl)(3-pyridyl))carbonylamino]propyl}amino)acetate]
20 | 5.37 | O=C(Nc1cccnc1)c1ccc(-c2ccccc2)nc1NCCc1ccccn1 [{6-phenyl-2-[(2-(2-pyridyl)ethyl)amino](3-pyridyl)}-N-(3-pyridyl)carboxamide]
21 | 0.31 | N#Cc1ccccc1-c1ccc(C(=O)NCCc2ncccc2CN)c(NCCc2cccc(F)c2)n1 [N-{2-[3-(aminomethyl)(2-pyridyl)]ethyl}(6-(2-cyanophenyl)-2-{[2-(3-fluorophenyl)ethyl]amino}(3-pyridyl))carboxamide]
22 | 0.083 | N#Cc1ccccc1-c1ccc(C(=O)NC[C@H]2CCCCN2C(=O)CCCN)c(NCCc2cccc(F)c2)n1 [N-{[(2R)-1-(4-aminobutanoyl)(2-piperidyl)]methyl}(6-(2-cyanophenyl)-2-{[2-(3-fluorophenyl)ethyl]amino}(3-pyridyl))carboxamide]
23 | 18.5 | N#Cc1ccccc1-c1ccc(C(=O)N[C@H]2CCCN(CCN)C2=O)c(NCCc2cccc(F)c2)n1 (stereo in doubt) [N-[1-(2-aminoethyl)-2-oxo(3-piperidyl)](6-(2-cyanophenyl)-2-{[2-(3-fluorophenyl)ethyl]amino}(3-pyridyl))carboxamide]
24 | 0.79 | O=C(NCc1cccnc1)c1ccc(-c2cccc(O)c2)nc1NCCc1ccccn1 [{6-(3-hydroxyphenyl)-2-[(2-(2-pyridyl)ethyl)amino](3-pyridyl)}-N-(3-pyridylmethyl)carboxamide]
25 | 28.1 | COC(=O)c1cccc(CCNc2nc(-c3ccccc3)ccc2C(=O)NCc2cccnc2)c1 [methyl 3-[2-({6-phenyl-3-[N-(3-pyridylmethyl)carbamoyl]-2-pyridyl}amino)ethyl]benzoate]
26 | 0.915 | O=C(NCc1cccnc1)c1ccc(-c2cccc(F)c2)nc1NCCc1ccccn1 [{6-(3-fluorophenyl)-2-[(2-(2-pyridyl)ethyl)amino](3-pyridyl)}-N-(3-pyridylmethyl)carboxamide]
27 | 12.4 | CN(C)c1cccc(-c2ccc(C(=O)NCc3cccnc3)c(NCCc3ccccn3)n2)c1 [{6-[3-(dimethylamino)phenyl]-2-[(2-(2-pyridyl)ethyl)amino](3-pyridyl)}-N-(3-pyridylmethyl)carboxamide]
28 | 1.86 | Cn1cc(-c2ccc(C(=O)NCc3ccn(CCN)n3)c(NCCc3cccc(F)c3)n2)cn1 [N-{[1-(2-aminoethyl)pyrazol-3-yl]methyl}(2-{[2-(3-fluorophenyl)ethyl]amino}-6-(1-methylpyrazol-4-yl)(3-pyridyl))carboxamide]
29 | 25.2 | CC(=O)N1CC[C@@H](CNC(=O)c2ccc(-c3ccccc3)nc2NCCc2ccccn2)C1 [N-[((3S)-1-acetylpyrrolidin-3-yl)methyl]{6-phenyl-2-[(2-(2-pyridyl)ethyl)amino](3-pyridyl)}carboxamide]
30 | 0.466 | O=C(NC[C@H]1CCN1)c1cc(F)c(-c2cn[nH]c2)nc1NCCc1cccc(F)c1 [N-[((2R)azetidin-2-yl)methyl](5-fluoro-2-{[2-(3-fluorophenyl)ethyl]amino}-6-pyrazol-4-yl(3-pyridyl))carboxamide]
31 | 8.25 | O=C(NCc1cccnc1)c1ccc(-c2ccccc2)nc1NCCc1cccc(C(F)(F)F)c1 [[6-phenyl-2-({2-[3-(trifluoromethyl)phenyl]ethyl}amino)(3-pyridyl)]-N-(3-pyridylmethyl)carboxamide]
32 | 0.46 | N#Cc1ccccc1-c1ccc(C(=O)NCc2cccnc2)c(NCCc2ccccn2)n1 [{6-(2-cyanophenyl)-2-[(2-(2-pyridyl)ethyl)amino](3-pyridyl)}-N-(3-pyridylmethyl)carboxamide]
33 | 4.18 | COC(=O)[C@H](CO)NC(=O)c1ccc(-c2ccccc2C#N)nc1NCCc1cccc(F)c1 [methyl (2S)-2-[(6-(2-cyanophenyl)-2-{[2-(3-fluorophenyl)ethyl]amino}(3-pyridyl))carbonylamino]-3-hydroxypropanoate]
34 | 0.02 | NCCNc1cccc(CNC(=O)c2ccc(-c3cn[nH]c3)nc2NCCc2cccc(F)c2)n1 [N-({6-[(2-aminoethyl)amino](2-pyridyl)}methyl)(2-{[2-(3-fluorophenyl)ethyl]amino}-6-pyrazol-4-yl(3-pyridyl))carboxamide]
35 | 0.917 | N#Cc1ccccc1-c1ccc(C(=O)NC[C@@H]2CCC(=O)N2CCN)c(NCCc2cccc(F)c2)n1 [N-{[(2S)-1-(2-aminoethyl)-5-oxopyrrolidin-2-yl]methyl}(6-(2-cyanophenyl)-2-{[2-(3-fluorophenyl)ethyl]amino}(3-pyridyl))carboxamide]
